The source made the active and inactive calls. The rule behind the calls is not given here.
How the values were obtained:
Carbonic anhydrase 9 = Carbonic anhydrase 9 (Homo sapiens, UniProt Q16790)
Description: Inhibition of human carbonic anhydrase-9 catalytic domain assessed as reduction in CO2 hydration after 15 mins by phenol red dye based stopped flow assay

Mus musculus [1] = organism: Mus musculus; assay: animal or person
Description: Anticonvulsant activity in mouse assessed as reduction in PTZ-induced seizures

Mus musculus [2] = assay: Anticonvulsant activity in ip dosed mouse assessed as reduction in PTZ-induced seizures pretreated for 30 mins followed by PTZ addition; type: functional, organism-based
[3] = Toxicity in mouse assessed as sedation at 20 to 30 mg/kg; type: organism-based; details: in vivo
[4] = Toxicity in mouse in mouse model of PTZ-induced seizures assessed as clonus occurance at 20 to 30 mg/kg, ip pretreated for 30 mins followed by PTZ addition; type: organism-based; details: in vivo

| SMILES | Ki (Carbonic anhydrase 9) | further results |
| --- | --- | --- |
| CC1CCN(C(=O)c2ccc(S(N)(=O)=O)cc2)CC1 | 3.4 nM | – |
| CC1(C)O[C@@H]2[C@@H](CO[C@@]3(COS(N)(=O)=O)OC(C)(C)O[C@@H]23)O1 [TOPIRAMATE] | – | ED50 (Mus musculus [1]): 22 mg/kg |
| NS(=O)(=O)c1ccc(C(=O)N2CCN(c3ccccc3)CC2)cc1 | 4.8 nM | – |
| NS(=O)(=O)c1ccc(C(=O)N2CCC(O)(c3ccccc3)CC2)cc1 | 22.6 nM | – |
| NS(=O)(=O)c1ccc(C(=O)N2CCN(Cc3ccc(F)cc3)CC2)cc1 | 45.1 nM | Activity (Mus musculus [2]): Active; Activity [3]: Toxic; Activity [4]: Toxic |
| NS(=O)(=O)c1ccc(C(=O)N2CCCCC2)cc1 | 3.1 nM | – |
| NS(=O)(=O)c1ccc(C(=O)N2CCN(C(c3ccccc3)c3ccccc3)CC2)cc1 | 28.2 nM | Activity (Mus musculus [2]): Active; Activity [3]: Toxic; Activity [4]: Toxic |
| CC1CCCN(C(=O)c2ccc(S(N)(=O)=O)cc2)C1 (centres undefined) | 2.4 nM | – |
| NS(=O)(=O)c1ccc(C(=O)N2CCN(Cc3ccccc3)CC2)cc1 | 33.1 nM | – |
| NS(=O)(=O)c1ccc(C(=O)N2CCC(Cc3ccccc3)CC2)cc1 | 7 nM | – |
| NS(=O)(=O)c1ccc(C(=O)N2CCC(c3ccccc3)CC2)cc1 | 3.3 nM | Activity (Mus musculus [2]): Active; Activity [3]: Toxic; Activity [4]: Toxic |
| N#CC1(c2ccccc2)CCN(C(=O)c2ccc(S(N)(=O)=O)cc2)CC1 | 18.4 nM | – |
| CC1CCCCN1C(=O)c1ccc(S(N)(=O)=O)cc1 (centres undefined) | 2.6 nM | – |
| CC(=O)C1(c2ccccc2)CCN(C(=O)c2ccc(S(N)(=O)=O)cc2)CC1 | 3.1 nM | – |
| NS(=O)(=O)c1ccc(C(=O)N2CCC(O)(c3ccc(Cl)cc3)CC2)cc1 | 24.9 nM | – |
| NS(=O)(=O)c1ccc(C(=O)N2CCCCCC2)cc1 | 16.8 nM | – |
| NS(=O)(=O)c1ccc(C(=O)N2CCC(O)(c3ccc(Br)cc3)CC2)cc1 | 4.7 nM | Activity (Mus musculus [2]): Active; Activity [3]: Toxic; Activity [4]: Toxic |
